Reference: patent publication EP4631940A1, “COMPOUND TARGETING PAN-KRAS PROTEIN DEGRADATION AGENT AND USE THEREOF” (Betta Pharmaceuticals Co., Ltd., priority 2022, dated 2024)
Where two headings read alike, the source gives them in different places.

What was measured:
[1] = system: AGS; assay: Cell proliferation experiment (CellTiter-Glo); assay type: cell-based; conditions: read-out: IC50(nM) AGS
[2] = in vitro; conditions: mouse, microsomes
[3] = target: T1, KRAS G12D (Homo sapiens, UniProt P01116, G12D); assay: cell-based; conditions: AGS
T1 sequence (P01116 1-188 isoform P01116-2 G12D): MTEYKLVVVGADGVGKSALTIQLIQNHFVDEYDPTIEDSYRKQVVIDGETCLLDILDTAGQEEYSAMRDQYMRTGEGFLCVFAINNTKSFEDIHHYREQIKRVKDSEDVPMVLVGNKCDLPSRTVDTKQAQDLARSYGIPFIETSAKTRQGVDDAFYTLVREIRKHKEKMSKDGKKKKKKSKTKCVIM

[4] = system: SW620; assay: Cell proliferation experiment (CellTiter-Glo); assay type: cell-based; conditions: read-out: IC50(nM) SW620
[5] = system: H358; assay: Cell proliferation experiment (CellTiter-Glo); assay type: cell-based; conditions: H358, KRAS mutation type G12C, 96 h incubation
[6] = target: T1, KRAS G12D
[7] = in vitro; conditions: human, microsomes
[8] = in vitro; conditions: dog, microsomes
[9] = in vitro; conditions: rat, microsomes

## CCc1c(F)ccc2cc(O)cc(-c3ncc4c(N5CCC[C@@](C)(O)C5)nc(OCC5(CN6CCC7(CC6)CN(c6ccc(-c8cn([C@H](C(=O)N9C[C@H](O)C[C@H]9C(=O)N[C@@H](C)c9ccc(-c%10scnc%10C)cc9)C(C)C)nn8)cc6)C7)CC5)nc4c3F)c12 [Compound 75]
[1]; Homo sapiens, AGS, 96 h
  IC50: 11 nM
[2]
  microsomal CLint: 8.6 µL/min/mg
[3]
  Dmax: 95%
[4]; Homo sapiens, SW-620, 96 h
  IC50: 122 nM
[5]; Homo sapiens, NCI-H358
  IC50: 40 nM
[6]
  DC50: 24 nM
[7]
  microsomal CLint: 1 µL/min/mg
[8]
  microsomal CLint: 22.1 µL/min/mg
[9]
  microsomal CLint: 20.7 µL/min/mg

## (2S,4R)-1-((S)-2-(4-(5-(7-((7-(8-ethyl-7-fluoro-3-hydroxynaphthalen-1-yl)-8-fluoro-4-((R)-3-hy droxy-3-methylpiperidin-1-yl)pyrido[4,3-d]pyrimidin-2-yl)oxy)methyl)cyclopropyl)methyl)-2,7-azaspiro[3.5]nonan-2-yl)pyrazin-2-yl)-1H-1,2,3-triazol-1-yl)-3-methylbutanoyl)-4-hydroxy-N-(( R)-2-hydroxy-1-(4-(4-methylthiazol-5-yl)phenyl)ethyl)pyrrolidine-2-carboxamide [Compound 170]
[1]
  IC50: 3.6 nM
[4]
  IC50: 19 nM
[5]
  IC50: 8.5 nM

## CCc1c(F)ccc2cc(O)cc(-c3ncc4c(N5CCC[C@@](C)(O)C5)nc(OCC5(CN6CCC(F)(COc7cc([C@H](C(=O)N8C[C@H](O)C[C@H]8C(=O)N[C@@H](C)c8ccc(-c9scnc9C)cc8)C(C)C)on7)CC6)CC5)nc4c3F)c12 [Compound 100]
[1]; Homo sapiens, AGS, 96 h
  IC50: 11 nM
[2]
  microsomal CLint: 3.2 µL/min/mg
[3]
  Dmax: 95%
[4]; Homo sapiens, SW-620, 96 h
  IC50: 38 nM
[6]
  DC50: 9.5 nM
[7]
  microsomal CLint: 47 µL/min/mg
[8]
  microsomal CLint: 57.5 µL/min/mg
[9]
  microsomal CLint: 7.9 µL/min/mg

## CCc1c(F)ccc2cc(O)cc(-c3ncc4c(N5CCC[C@@](C)(O)C5)nc(OCC5(CN6CCC7(CC6)CN(Cc6cnc(-c8cn([C@H](C(=O)N9C[C@H](O)C[C@H]9C(=O)N[C@@H](C)c9ccc(-c%10scnc%10C)cc9)C(C)C)nn8)cn6)C7)CC5)nc4c3F)c12 [Compound 189]
[1]
  IC50: 2.9 nM
[4]
  IC50: 13 nM
[5]
  IC50: 15 nM

## CCc1c(F)ccc2cc(O)cc(-c3ncc4c(N5CCC[C@@](C)(O)C5)nc(OCC5(CN6CCN(c7cnc(-c8cn([C@H](C(=O)N9C[C@H](O)C[C@H]9C(=O)N[C@@H](C)c9ccc(-c%10scnc%10C)cc9)C(C)C)nn8)cn7)CC6)CC5)nc4c3F)c12 [Compound 134]
[1]; Homo sapiens, AGS, 96 h
  IC50: 10 nM
[2]
  microsomal CLint: 6.4 µL/min/mg
[3]
  Dmax: 95%
[4]; Homo sapiens, SW-620, 96 h
  IC50: 58 nM
[6]
  DC50: 5.9 nM
[7]
  microsomal CLint: 28.4 µL/min/mg
[8]
  microsomal CLint: 5.5 µL/min/mg
[9]
  microsomal CLint: 3 µL/min/mg

## CCc1c(F)ccc2cc(O)cc(-c3ncc4c(N5CCC[C@@](C)(O)C5)nc(OCC5(CN6CCC(n7cc(-c8cn([C@H](C(=O)N9C[C@H](O)C[C@H]9C(=O)N[C@@H](C)c9ccc(-c%10scnc%10C)cc9)C(C)C)nn8)cn7)CC6)CC5)nc4c3F)c12 [Compound 138]
[1]; Homo sapiens, AGS, 96 h
  IC50: 14 nM
[2]
  microsomal CLint: 13.6 µL/min/mg
[3]
  Dmax: 95%
[4]; Homo sapiens, SW-620, 96 h
  IC50: 102 nM
[6]
  DC50: 13 nM
[7]
  microsomal CLint: 11.2 µL/min/mg
[8]
  microsomal CLint: 25.5 µL/min/mg
[9]
  microsomal CLint: 5.7 µL/min/mg

## C#Cc1c(F)ccc2cc(O)cc(-c3ncc4c(N5CCCn6nc(C(=O)N(C)C)cc6C5)nc(OCC5(CN6CCC(COc7ccc(C(=O)N[C@H](C(=O)N8C[C@H](O)C[C@H]8C(=O)N[C@@H](C)c8ccc(-c9scnc9C)cc8)C(C)(C)C)cc7)CC6)CC5)nc4c3F)c12 [Compound 89]
[1]
  IC50: 193 nM
[4]
  IC50: 1420 nM
[5]
  IC50: 635 nM

## CCc1c(F)ccc2cc(O)cc(-c3ncc4c(N5CCCC(C)(O)C5)nc(OCC5(CN6CCC(COc7ccc(C(=O)N[C@H](C(=O)N8C[C@H](O)C[C@H]8C(=O)N[C@@H](C)c8ccc(-c9scnc9C)cc8)C(C)(C)C)cc7)CC6)CC5)nc4c3F)c12 (stereo partly drawn) [Compound 1, (2S,4R)-1-((2S)-2-(4-((1-((1-(((7-(8-ethyl-7-fluoro-3-hydroxynaphthalen-1-yl)-8-fluoro-4-(3-hydroxy-3-methylpiperidin-1-yl)pyrido[4,3-d]pyrimidin-2-yl)oxy)methyl)cyclopropyl)methyl)piperidin-4-yl)methoxy)benzamido)-3,3-dimethylbutanoyl)-4-hydroxy-N-((S)-1-(4-(4-methylthiazol-5-yl)phenyl)ethyl)pyrrolidine-2-carboxamide]
[1]; Homo sapiens, AGS, 96 h
  IC50: 109 nM
[5]; Homo sapiens, NCI-H358
  IC50: 1080 nM

## (2S,4R)-1-((S)-2-(4-(5-((1-((1-(((7-(8-ethyl-7-fluoro-3-hydroxynaphthalen-1-yl)-8-fluoro-4-((R)-3-hydroxy-3-methylpiperidin-1-yl)pyrido[4,3-d]pyrimidin-2-yl)oxy)methyl)cyclopropyl)methyl) piperidin-4-yl)oxy)pyrazin-2-yl)-1H-1,2,3-triazol-1-yl)-3-methylbutanoyl)-4-hydroxy-N-((1R,2R )-2-hydroxy-3-methyl-1-(4-(4-methylthiazol-5-yl)phenyl)butyl)pyrrolidine-2-carboxamide [Compound 184]
[1]
  IC50: 2.7 nM
[4]
  IC50: 11 nM
[5]
  IC50: 15 nM

## CCc1c(F)ccc2cc(O)cc(-c3ncc4c(N5CCC[C@@](C)(O)C5)nc(OCC5(CN6CCC(Oc7cc(-c8cn([C@H](C(=O)N9C[C@H](O)C[C@H]9C(=O)N[C@@H](C)c9ccc(-c%10scnc%10C)cc9)C(C)C)nn8)ccn7)CC6)CC5)nc4c3F)c12 [Compound 136]
[1]; Homo sapiens, AGS, 96 h
  IC50: 10 nM
[2]
  microsomal CLint: 22.1 µL/min/mg
[3]
  Dmax: 95%
[4]; Homo sapiens, SW-620, 96 h
  IC50: 53 nM
[5]; Homo sapiens, NCI-H358
  IC50: 6.6 nM
[6]
  DC50: 14 nM
[7]
  microsomal CLint: 19.6 µL/min/mg
[8]
  microsomal CLint: 20.8 µL/min/mg
[9]
  microsomal CLint: 8 µL/min/mg

## CCc1c(F)ccc2cc(O)cc(-c3ncc4c(N5CCC[C@@](C)(O)C5)nc(OCC5(CN6CCC(Oc7cnc(-c8cn([C@H](C(=O)N9C[C@H](O)C[C@H]9C(=O)N[C@@H](CO)c9ccc(-c%10scnc%10C)cc9)C(C)C)nn8)cn7)CC6)CC5)nc4c3F)c12 [Compound 178]
[1]
  IC50: 2.5 nM
[4]
  IC50: 9.4 nM
[5]
  IC50: 5.7 nM

## C=C1CN2[C@H](COc3ccc(-c4cn([C@H](C(=O)N5C[C@H](O)C[C@H]5C(=O)N[C@@H](C)c5ccc(-c6scnc6C)cc5)C(C)C)nn4)cn3)CC[C@@]2(COc2nc(N3CCC[C@@](C)(O)C3)c3cnc(-c4cc(O)cc5ccc(F)c(CC)c45)c(F)c3n2)C1 [Compound 124]
[1]; Homo sapiens, AGS, 96 h
  IC50: 15 nM
[2]
  microsomal CLint: 18.6 µL/min/mg
[3]
  Dmax: 95%
[4]; Homo sapiens, SW-620, 96 h
  IC50: 135 nM
[6]
  DC50: 21 nM
[7]
  microsomal CLint: 49.7 µL/min/mg
[8]
  microsomal CLint: 88 µL/min/mg
[9]
  microsomal CLint: 9.1 µL/min/mg

## C=C1CN2[C@@H](COC(=O)N3CCC4(CC3)CC(c3cn([C@H](C(=O)N5C[C@H](O)C[C@H]5C(=O)N[C@@H](C)c5ccc(-c6scnc6C)cc5)C(C)C)nn3)C4)CC[C@@]2(COc2nc(N3CCC[C@@](C)(O)C3)c3cnc(-c4cc(O)cc5ccc(F)c(CC)c45)c(F)c3n2)C1 [Compound 143]
[1]; Homo sapiens, AGS, 96 h
  IC50: 16 nM
[3]
  Dmax: 95%
[4]; Homo sapiens, SW-620, 96 h
  IC50: 58 nM
[5]; Homo sapiens, NCI-H358
  IC50: 24 nM
[6]
  DC50: 12 nM

## CCc1c(F)ccc2cc(O)cc(-c3ncc4c(N5CCC[C@@](C)(O)C5)nc(OCC5(CN6CCN(C7CN(c8cnc(-c9cn([C@H](C(=O)N%10C[C@H](O)C[C@H]%10C(=O)N[C@@H](C)c%10ccc(-c%11scnc%11C)cc%10)C(C)C)nn9)cn8)C7)CC6)CC5)nc4c3F)c12 [Compound 183]
[1]
  IC50: 3 nM
[4]
  IC50: 11 nM
[5]
  IC50: 12 nM

## (2S,4R)-1-((2R)-2-(3-(3-(4-((1-((7-(8-ethyl-7-fluoro-3-hydroxynaphthalen-1-yl)-8-fluoro-4-((R) 3-hydroxy-3-methylpiperidin-1-yl)pyrido[4,3-d]pyrimidin-2-yl)oxy)methyl)cyclopropyl)methyl) piperazin-1-yl)pyrrolidin-1-yl)isoxazol-5-yl)-3-methylbutanoyl)-4-hydroxy-N-((S)-1-(4-(4-meth ylthiazol-5-yl)phenyl)ethyl)pyrrolidine-2-carboxamide [Compound 166]
[1]
  IC50: 4.9 nM
[4]
  IC50: 33 nM
[5]
  IC50: 21 nM

## CCc1c(F)ccc2cc(O)cc(-c3ncc4c(N5CCC[C@@](C)(O)C5)nc(OCC5(CN6CCC(N7CCN(c8cc([C@H](C(=O)N9C[C@H](O)C[C@H]9C(=O)N[C@@H](C)c9ccc(-c%10scnc%10C)cc9)C(C)C)on8)CC7)CC6)CC5)nc4c3F)c12 [Compound 115]
[1]; Homo sapiens, AGS, 96 h
  IC50: 29 nM
[2]
  microsomal CLint: 15.9 µL/min/mg
[3]
  Dmax: 95%
[6]
  DC50: 21 nM
[7]
  microsomal CLint: 32.1 µL/min/mg
[8]
  microsomal CLint: 18.3 µL/min/mg
[9]
  microsomal CLint: 13.8 µL/min/mg

## CCc1c(F)ccc2cc(O)cc(-c3ncc4c(N5CCC[C@@](C)(O)C5)nc(OCC5(CN6CCC(OCc7ccc(-c8cn([C@H](C(=O)N9C[C@H](O)C[C@H]9C(=O)N[C@@H](C)c9ccc(-c%10scnc%10C)cc9)C(C)C)nn8)cc7)CC6)CC5)nc4c3F)c12 [Compound 93]
[1]; Homo sapiens, AGS, 96 h
  IC50: 6.8 nM
[2]
  microsomal CLint: 8.3 µL/min/mg
[3]
  Dmax: 95%
[4]; Homo sapiens, SW-620, 96 h
  IC50: 86 nM
[5]; Homo sapiens, NCI-H358
  IC50: 20 nM
[6]
  DC50: 11 nM
[7]
  microsomal CLint: 23.5 µL/min/mg
[8]
  microsomal CLint: 28.5 µL/min/mg
[9]
  microsomal CLint: 10.9 µL/min/mg
